Reference: EP0238198A2, “Method of modifying the lipid structure function and expression of cell membranes and pharmaceutical compositions for use therein” (Habib, Nagy Adly, priority 1986, dated 1987)
“Also recorded” adds a separate entry of the source.

Tests used:
[1] = system: human embryonic lung fibroblasts; assay: cell growth / cytotoxicity in the HSV2 host cell cultures (cell counting); type: cell-based; conditions: stearic acid 100 micromolar
D23 Rat hepatoma = assay: tumour cell colony inhibition test (clonogenic assay); type: cell-based; parameters: inhibition of colony formation: dose or concentration left out as unconfirmed; conditions: for Mean no colonies ± SE: 5 days, medium control 41.8±3.5
Procedure: (§1) Cells from rat mammary carcinoma (Sp 22), primary rat fibroblasts (from alveolar tissue) and four rat hepatoma cell lines (D23, D261, D262A and D262B) were studied.
(§2) The method used for rat cells was as follows: 200 cells were plated per dish in 1 ml 'Eagles' methionine enriched medium (MEM) + 10% newborn calf serum (NBCS) in 30 mm culture dishes and incubated for four hours at 37°C. All became firmly adherent during this initial incubation. […] To control dishes 1 ml of MEM + NBCS was added, or 1 ml of MEM + NBCS + 1% ethanol. The dishes were incubated for 5 days. Medium was then removed, and the cell colonies were rinsed with 0.9% W/V NaCl solution and fixed for 15 minutes with methanol. Cell colonies were stained with 1% aqueous crystal violet and the dishes were allowed to dry.

mammary carcinoma = assay: NMU-induced mammary carcinoma in rats, Example 1; type: in vivo, female Sprague-Dawley rats
Procedure: NMU was administered intravenously to thirty female Sprague-Dawley rats weighing approximately 200g. It has been well established that with this animal model breast cancers will develop in the majority by 12 weeks from the commencement of the giving of the carcinogen (Gullino, P.M., Pettigrew, H.M., and Grantham, E.H., I. National Cancer Inst. 1975, 54, 401-409). The rats were divided into two groups, with those of the first group (twenty rats) receiving NMU alone, and those of the second group (ten rats) receiving NMU plus stearic acid. NMU in 3% acetic acid was dissolved in distilled water (20mg/ml) and was given in three intravenous injections of 5mg/100g body weight at weeks 1, 4 and 8. […] The onset of tumours was monitored by daily inspection and by palpation of the mammary regions twice weekly. At week 22, all surviving animals were sacrificed, and autopsies were performed. The tumours located thereby were dissected and examined histologically. In the control animals who were given carcinogen alone 19 out of the 20 animals had developed breast cancers by week 16 of the experiment, with a mean latent period of 72 days. […] The range of tumour weight/rat was 5g to 47.8g with a mean value of 23.6g per rat (excluding the tumour free animal). […] These five rats had seven tumours in all, with a mean of 1.4 tumours per rat (p less than 0.001 compared to the control group). The range of tumour weight/rat was 4.2g to 21.2g, with an average of 16.4g/rat (p less than 0.01 compared to the control group). […] Of the remaining 8 live rats from this group which were killed at week 22, only three had tumours, the other five being tumour-free.

[2] = system: three cancer cell lines from bladder, testis and hepatoma (liver cancer); assay: clonogenic assay with three cancer cell lines; type: cell-based; parameters: inhibition of cell division: dose or concentration left out as unconfirmed
Procedure: In vitro studies have been conducted using a clonogenic assay utilising three cancer cell lines from bladder, testis and hepatoma (liver cancer), incubating the cells for two weeks with saturated fatty acids. The control cells were incubated without any addition. The control cells grew during this time period and formed multiple colonies, as was expected.

D262B Rat hepatoma [3] = assay: tumour cell colony inhibition test (clonogenic assay); type: cell-based
malignant cells = assay: tumour development in animals implanted with malignant cells; type: in vivo
D262B Rat hepatoma [4] = assay: tumour cell colony inhibition test (clonogenic assay); type: cell-based; conditions: for Mean no colonies ± SE: 5 days, medium control 37.0± 4.0
Procedure: as §1
as §2, with “incubation. […] Dilutions containing 20 µg/ml, […], 200 ng/ml and 2 ng/ml were prepared, 1 ml of each dilution was added to four dishes of cells, the final concentration being half the concentration of the material added.” for “incubation.”

D261 Rat hepatoma = assay: as above; type: cell-based; conditions: for Mean no colonies ± SE: 5 days, medium control 33.0±5.1
Procedure: as §1
as §2, with “incubation. […] Dilutions containing 20 µg/ml, […], 200 ng/ml and 2 ng/ml were prepared, 1 ml of each dilution was added to four dishes of cells, the final concentration being half the concentration of the material added.” for “incubation.”

[5] = system: Sp22 Rat mammary carcinoma; assay: as above; type: cell-based; conditions: for Mean no colonies ± SE: 5 days, medium control 61.0±6
Procedure: as §1
as §2, with “incubation. […] Dilutions containing 20 µg/ml, […], 200 ng/ml and 2 ng/ml were prepared, 1 ml of each dilution was added to four dishes of cells, the final concentration being half the concentration of the material added.” for “incubation.”

D262A Rat hepatoma = assay: as above; type: cell-based; parameters: inhibition of colony formation: dose or concentration left out as unconfirmed; conditions: for Mean no colonies ± SE: 5 days, medium control 245.0±11.9
Procedure: as §1
as §2, with “incubation. […] Dilutions containing 20 µg/ml, […], 200 ng/ml and 2 ng/ml were prepared, 1 ml of each dilution was added to four dishes of cells, the final concentration being half the concentration of the material added.” for “incubation.”

[6] = Rattus norvegicus, 120 h, read-out: % colony formation relative to medium control
[7] = NMU plus stearic acid 10mg s.c. weekly

## CCCCCCCCCCCCCCCCCC(=O)O [stearic acid, octadecanoic acid]
[1]
  inhibition of cell division / cell growth: inhibits cell division; also recorded: (+) = some inhibition of cell growth at this concentration of fatty acid supplementation
D23 Rat hepatoma
  inhibition of colony formation: significant inhibition of colony formation
D23 Rat hepatoma; [6]
  activity at 0.01 µg/mL: 101%
  activity at 0.1 µg/mL: 88.5%
  activity at 1 µg/mL: 67%
  activity at 10 µg/mL: 67%
  activity at 50 µg/mL: 23%
D23 Rat hepatoma; stearic acid 10ng/ml
  Mean no colonies ± SE: 42.3±1.6
D23 Rat hepatoma; stearic acid 100 ng/ml
  Mean no colonies ± SE: 37.0±1.5
D23 Rat hepatoma; stearic acid 1μg/ml
  Mean no colonies ± SE: 28.0±1.5
D23 Rat hepatoma; stearic acid 10 μg/ml
  Mean no colonies ± SE: 28.0±2.9
D23 Rat hepatoma; stearic acid 50 μg/ml
  Mean no colonies ± SE: 10.0±2.6
Mammary carcinoma; NMU plus stearic acid 10mg in liquid paraffin s.c. weekly from second week, ten rats, NMU alone 19 out of 20
  animals that had developed mammary tumours by week 16: five of the original ten
Mammary carcinoma; [7]
  rats with tumours among the 8 live rats killed at week 22: three
  tumour-free rats among the 8 live rats killed at week 22: five
Mammary carcinoma; NMU plus stearic acid 10mg s.c. weekly, NMU alone 2.68, p less than 0.001
  mean tumours per rat: 1.4 tumours per rat
Mammary carcinoma; NMU plus stearic acid 10mg s.c. weekly, NMU alone 23.6g per rat, p less than 0.01
  average tumour weight: 16.4 g/rat
Mammary carcinoma; NMU plus stearic acid 10mg s.c. weekly, NMU alone 72 days
  mean latent period: 74 days
Mammary carcinoma; NMU plus stearic acid 10mg s.c. weekly, of ten rats, NMU alone all 19 with tumours died
  rats that had died by week 22: 2
[2]; incubation for two weeks, inhibition related to dose
  cell division (colony formation): failed to divide
[2]; two weeks
  inhibition of cell division: complete inhibition of cell division
D262B Rat hepatoma [3]; [6]
  activity at 0.01 µg/mL: 109%
D262B Rat hepatoma [3]; stearic acid 10ng/ml, 5 days, medium control 37.0± 4.0
  Mean no colonies ± SE: 40.3± 1.8
Malignant cells
  development of tumours: inhibits the development of tumours
D262B Rat hepatoma [4]; [6]
  activity at 0.1 µg/mL: 111%
  activity at 1 µg/mL: 83.8%
  activity at 10 µg/mL: 67.6%
  activity at 50 µg/mL: 48.6%
D262B Rat hepatoma [4]; dose of 10 µg/ml
  inhibition of colony formation: significant inhibition of colony formation
D262B Rat hepatoma [4]; stearic acid 100 ng/ml
  Mean no colonies ± SE: 41.0± 1.8
D262B Rat hepatoma [4]; stearic acid 1μg/ml
  Mean no colonies ± SE: 31.0± 5.8
D262B Rat hepatoma [4]; stearic acid 10 μg/ml
  Mean no colonies ± SE: 25.0± 2.8
D262B Rat hepatoma [4]; stearic acid 50 μg/ml
  Mean no colonies ± SE: 18.0± 4.5
D261 Rat hepatoma; [6]
  activity at 1 µg/mL: 64.5%
  activity at 10 µg/mL: 54.5%
  activity at 50 µg/mL: 18.1%
D261 Rat hepatoma; dose of 10 µg/ml
  inhibition of colony formation: significant inhibition of colony formation
D261 Rat hepatoma; stearic acid 1μg/ml
  Mean no colonies ± SE: 21.0±3.0
D261 Rat hepatoma; stearic acid 10 μg/ml
  Mean no colonies ± SE: 18.0±1.5
D261 Rat hepatoma; stearic acid 50 μg/ml
  Mean no colonies ± SE: 6.0±3.0
[5]; [6]
  activity at 0.001 µg/mL: 83%
  activity at 0.01 µg/mL: 91%
  activity at 0.1 µg/mL: 86%
  activity at 1 µg/mL: 93%
  activity at 10 µg/mL: 96%
  activity at 50 µg/mL: 84%
[5]; stearic acid 1ng/ml
  Mean no colonies ± SE: 54.0±10
[5]; stearic acid 10 ng/ml
  Mean no colonies ± SE: 55.7±3
[5]; stearic acid 100 ng/ml
  Mean no colonies ± SE: 52.5±6
[5]; stearic acid 1µg/ml
  Mean no colonies ± SE: 56.7±3
[5]; stearic acid 10 µg/ml
  Mean no colonies ± SE: 58.7±1
[5]; stearic acid 50 µg/ml
  Mean no colonies ± SE: 51.2±6
[5]; summary of Table 2
  inhibition of colony development: failed to inhibit
D262A Rat hepatoma
  inhibition of colony formation: significant inhibition of colony formation
D262A Rat hepatoma; [6]
  activity at 0.01 µg/mL: 88%
  activity at 0.1 µg/mL: 101%
  activity at 1 µg/mL: 83.2%
  activity at 10 µg/mL: 74.7%
  activity at 50 µg/mL: 32.4%
D262A Rat hepatoma; stearic acid 10ng/ml
  Mean no colonies ± SE: 216.0± 8.8
D262A Rat hepatoma; stearic acid 100 ng/ml
  Mean no colonies ± SE: 247.8± 8.3
D262A Rat hepatoma; stearic acid 1μg/ml
  Mean no colonies ± SE: 203.8±18.1
D262A Rat hepatoma; stearic acid 10 μg/ml
  Mean no colonies ± SE: 190.3±13.6
D262A Rat hepatoma; stearic acid 50 μg/ml
  Mean no colonies ± SE: 79.3± 7.1
